Reference: PubChem BioAssay AID330 (DTP/NCI, 2004)
Where “and” joins values, the source holds several entries; their conditions need not be identical. Equal entries are not always repeated. Inconclusive results and toxic doses are left out. Bridge positions count the residues as written; N and C are the ends. Peptide text beside a SMILES is read from it.

Tested on: P388 leukemia ip, CD2F1 mice, survival T/C
Experiment: NCI In Vivo Anticancer Drug Screen. Data for tumor model P388 Leukemia (intraperitoneal) in CD2F1 (CDF1) mice
Details: endpoint: median survival time, higher = longer survival
Procedure, shortened: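 Mice carrying the transplanted tumor received test compound or vehicle. Survival was recorded in each group, and the value is the treated-group measurement divided by that of the vehicle-treated control group.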

[1] = dose: 50.0 mg/kg/injection, schedule: Q01DX009 (ip), vehicle: saline with Tween-80
[2] = dose: 100.0 mg/kg/injection, schedule: Q01DX009 (ip), vehicle: saline with Tween-80
[3] = dose: 200.0 mg/kg/injection, schedule: Q01DX009 (ip), vehicle: saline with Tween-80
[4] = dose: 50.0 mg/kg/injection, schedule: Q01DX005 (ip), vehicle: Klucel (hydroxypropylcellulose) (HPC)
[5] = dose: 100.0 mg/kg/injection, schedule: Q01DX005 (ip), vehicle: Klucel (hydroxypropylcellulose) (HPC)
[6] = dose: 200.0 mg/kg/injection, schedule: Q01DX005 (ip), vehicle: Klucel (hydroxypropylcellulose) (HPC)
[7] = dose: 50.0 mg/kg/injection, schedule: Q01DX005 (ip), vehicle: saline with Tween-80
[8] = dose: 100.0 mg/kg/injection, schedule: Q01DX005 (ip), vehicle: saline with Tween-80
[9] = dose: 12.5 mg/kg/injection, schedule: Q01DX009 (ip), vehicle: saline with Tween-80
[10] = dose: 25.0 mg/kg/injection, schedule: Q01DX009 (ip), vehicle: saline with Tween-80

With `CCC(C)C1NC(=O)C(CC(C)C)NC(=O)C(C(C)C)NC(=O)C2CSSCC(NC1=O)C(=O)N2` (configuration not stated) (cyclo(CCVLI); disulfide 1-2; configuration not given here) the T/C (dose: 31.25 micrograms/kg/injection, schedule: Q01DX009 (ip), vehicle: Klucel (hydroxypropylcellulose) (HPC)) was 106 % of control, the T/C (dose: 62.5 micrograms/kg/injection, schedule: Q01DX009 (ip), vehicle: Klucel (hydroxypropylcellulose) (HPC)) was 100 % of control and the T/C (dose: 125.0 micrograms/kg/injection, schedule: Q01DX009 (ip), vehicle: Klucel (hydroxypropylcellulose) (HPC)) was 94 % of control. For the same compound, the T/C (dose: 250.0 micrograms/kg/injection, schedule: Q01DX009 (ip), vehicle: Klucel (hydroxypropylcellulose) (HPC)) was 97 % of control, the T/C (dose: 500.0 micrograms/kg/injection, schedule: Q01DX009 (ip), vehicle: Klucel (hydroxypropylcellulose) (HPC)) was 99 % of control and the T/C (dose: 1000.0 micrograms/kg/injection, schedule: Q01DX009 (ip), vehicle: Klucel (hydroxypropylcellulose) (HPC)) was 97 % of control.
In the case of `Cn1nc(-c2ccccc2)c(-c2ccccc2)c(C#N)c1=O`, the T/C (dose: 25.0 mg/kg/injection, schedule: Q04DX002 (ip), vehicle: distilled water + Tween-80) is reported as 109 % of control, the T/C (dose: 50.0 mg/kg/injection, schedule: Q04DX002 (ip), vehicle: distilled water + Tween-80) is reported as 102 % of control and the T/C (dose: 100.0 mg/kg/injection, schedule: Q04DX002 (ip), vehicle: distilled water + Tween-80) is reported as 101 % of control. For the same compound, the T/C (dose: 200.0 mg/kg/injection, schedule: Q04DX002 (ip), vehicle: distilled water + Tween-80) was 100 % of control.
`O=C(O)CN(CC(=O)O)Cc1cc2c(cc1O)Oc1cc(O)c(CN(CC(=O)O)CC(=O)O)cc1C21OC(=O)c2ccccc21` was tested, and the T/C [1] was 105 % of control, the T/C [2] was 101 % of control and the T/C [3] was 97 % of control.
`O=C(c1ccccc1)N1C=CN(C(=O)c2ccccc2)C1c1nccn1C(=O)c1ccccc1` was tested, and the T/C [1] was 105 % of control, the T/C [2] was 96 % of control and the T/C [3] was 91 % of control.
With `Cn1c(=O)c2c(c3cc(O)ccc31)OC(C(C)(C)O)C2` (configuration not stated) the T/C [4] was 95 % of control, the T/C [5] was 96 % of control and the T/C [6] was 86 % of control.
`N#Cc1c(N)nc2c(c1N)CC(CCl)O2` (configuration not stated) was tested, and the T/C [1] was 94 % of control, the T/C [2] was 96 % of control and the T/C [3] was 87 % of control.
With `O=S1(=O)C(c2ccccc2)=C(O)c2cc3ccccc3nc21` the T/C [1] was 107 % of control, the T/C [2] was 112 % of control and the T/C [3] was 107 % of control.
For `Cc1ccc(NC(=O)CCC(=O)C(C)C(=O)c2ccccc2)cc1C` (configuration not stated), the T/C (dose: 60.0 mg/kg/injection, schedule: Q01DX005 (ip), vehicle: saline with Tween-80) was 105 % of control, the T/C (dose: 120.0 mg/kg/injection, schedule: Q01DX005 (ip), vehicle: saline with Tween-80) was 105 % of control and the T/C (dose: 240.0 mg/kg/injection, schedule: Q01DX005 (ip), vehicle: saline with Tween-80) was 109 % of control.
`c1ccc(-c2ccc[n+](CCC[n+]3cccc(-c4ccccn4)c3)c2)nc1` was tested, and the T/C [7] was 114 % of control and the T/C [8] was 114 % of control.
With `CCCCCc1nc2c(c3c1CCCC3)CCCC2` the T/C (dose: 60.0 mg/kg/injection, schedule: Q01DX005 (ip), vehicle: saline) was 98 % of control, the T/C (dose: 120.0 mg/kg/injection, schedule: Q01DX005 (ip), vehicle: saline) was 106 % of control and the T/C (dose: 240.0 mg/kg/injection, schedule: Q01DX005 (ip), vehicle: saline) was 107 % of control.
With `O=C1C2C3C=CC(C2C(=O)N1c1ccccc1)C1C2C(=O)N(c4ccccc4)C(=O)C2C31` (configuration not stated) the T/C (dose: 100.0 mg/kg/injection, schedule: Q01DX001 (ip), vehicle: saline with Tween-80) was 88 % of control, the T/C (dose: 200.0 mg/kg/injection, schedule: Q01DX001 (ip), vehicle: saline with Tween-80) was 89 % of control and the T/C (dose: 400.0 mg/kg/injection, schedule: Q01DX001 (ip), vehicle: saline with Tween-80) was 93 % of control.
`CC1(C)COC(Cc2ccccc2)=N1` was tested, and the T/C [1] was 100 % of control, the T/C (dose: 50.0 mg/kg/injection, schedule: Q04DX003 (ip), vehicle: saline with Tween-80) was 100 % of control and the T/C [2] was 104 % of control. The T/C (dose: 100.0 mg/kg/injection, schedule: Q04DX003 (ip), vehicle: saline with Tween-80) was 95 % of control, the T/C [3] was 100 % of control and the T/C (dose: 200.0 mg/kg/injection, schedule: Q04DX003 (ip), vehicle: saline with Tween-80) was 100 % of control.
For `O=C1c2cccc3cc([N+](=O)[O-])cc(c23)C(=O)N1CCN1CCCC1`, the T/C (dose: 1.56 mg/kg/injection, schedule: Q01DX009 (ip), vehicle: saline with Tween-80) was 118 % of control and the T/C [9] was 150 % of control.
With `C[N+](C)(C)N` the T/C (dose: 25.0 mg/kg/injection, schedule: Q01DX009 (ip), vehicle: saline) was 102 % of control, the T/C (dose: 50.0 mg/kg/injection, schedule: Q01DX009 (ip), vehicle: saline) was 100 % of control and the T/C (dose: 100.0 mg/kg/injection, schedule: Q01DX009 (ip), vehicle: saline) was 100 % of control.
In the case of `CCCCCCCCCCCCOC(=O)C(N)Cc1ccc(O)cc1` (configuration not stated), the T/C (dose: 50.0 mg/kg/injection, schedule: Q01DX009 (ip), vehicle: Klucel (hydroxypropylcellulose) (HPC)) is reported as 98 % of control, the T/C (dose: 100.0 mg/kg/injection, schedule: Q01DX009 (ip), vehicle: Klucel (hydroxypropylcellulose) (HPC)) is reported as 102 % of control and the T/C (dose: 200.0 mg/kg/injection, schedule: Q01DX009 (ip), vehicle: Klucel (hydroxypropylcellulose) (HPC)) is reported as 97 % of control.
In the case of `COc1ccc2c(NCCNc3c4ccccc4nc4cc(OC)ccc34)c3ccccc3nc2c1`, the T/C (dose: 0.62 mg/kg/injection, schedule: Q01DX009 (ip), vehicle: other) is reported as 90 % of control, the T/C (dose: 1.25 mg/kg/injection, schedule: Q01DX009 (ip), vehicle: other) is reported as 90 % of control and the T/C (dose: 2.5 mg/kg/injection, schedule: Q01DX009 (ip), vehicle: other) is reported as 96 % of control. For the same compound, the T/C (dose: 5.0 mg/kg/injection, schedule: Q01DX009 (ip), vehicle: other) was 100 % of control, the T/C (dose: 10.0 mg/kg/injection, schedule: Q01DX009 (ip), vehicle: other) was 106 % of control and the T/C (dose: 20.0 mg/kg/injection, schedule: Q01DX009 (ip), vehicle: other) was 96 % of control.
`NC(=S)c1ccc(N=Cc2ccc(Cl)cc2)cc1` was tested, and the T/C (dose: 50.0 mg/kg/injection, schedule: Q01DX001 (ip), vehicle: Klucel (hydroxypropylcellulose) (HPC)) was 97 % of control, the T/C (dose: 100.0 mg/kg/injection, schedule: Q01DX001 (ip), vehicle: Klucel (hydroxypropylcellulose) (HPC)) was 100 % of control and the T/C (dose: 200.0 mg/kg/injection, schedule: Q01DX001 (ip), vehicle: Klucel (hydroxypropylcellulose) (HPC)) was 102 % of control.
For `C=C(C)C(=O)OC1C2C(=C)C(=O)OC2CC(C)C2OC2C(=O)C(C)(O)C1OC(=O)C(=C)C` (configuration not stated), the T/C (dose: 12.5 mg/kg/injection, schedule: Q04DX002 (ip), vehicle: Klucel (hydroxypropylcellulose) (HPC)) was 110 % of control, the T/C (dose: 25.0 mg/kg/injection, schedule: Q04DX002 (ip), vehicle: Klucel (hydroxypropylcellulose) (HPC)) was 110 % of control and the T/C (dose: 50.0 mg/kg/injection, schedule: Q04DX002 (ip), vehicle: Klucel (hydroxypropylcellulose) (HPC)) was 107 % of control.
For `CS/C(N)=N\NC(=O)COc1ccc(Cl)cc1`, the T/C [7] was 100 % of control, the T/C [8] was 106 % of control and the T/C (dose: 200.0 mg/kg/injection, schedule: Q01DX005 (ip), vehicle: saline with Tween-80) was 100 % of control.
In the case of `CC1SC2(C(=O)N(CN3CCCCC3)c3ccccc32)N(c2ccccc2)C1=O` (configuration not stated), the T/C [4] is reported as 90 % of control, the T/C [5] is reported as 100 % of control and the T/C [6] is reported as 94 % of control.
In the case of `CCN(CC)CCCC(C)Nc1cc(/C=C/c2ccc(Cl)cc2)nc2cc(N(C)C)ccc12` (configuration not stated), the T/C (dose: 3.12 mg/kg/injection, schedule: Q01DX009 (ip), vehicle: Klucel (hydroxypropylcellulose) (HPC)) is reported as 107 % of control, the T/C (dose: 6.25 mg/kg/injection, schedule: Q01DX009 (ip), vehicle: Klucel (hydroxypropylcellulose) (HPC)) is reported as 110 % of control and the T/C (dose: 12.5 mg/kg/injection, schedule: Q01DX009 (ip), vehicle: Klucel (hydroxypropylcellulose) (HPC)) is reported as 98 % of control and 102 % of control.
With `COc1ccc2c(c1)CCC1C2CCC2(C)/C(=N/O)C3OC3C12` (configuration not stated) the T/C [9] was 94 % of control and 95 % of control, the T/C [10] was 110 % of control and 94 % of control and the T/C [1] was 101 % of control and 94 % of control. The T/C [2] was 101 % of control and 94 % of control.
`CC(C)COC1CC(C)(C)c2c(-c3ccccc3)nn(-c3ccccc3)c2O1` (configuration not stated) was tested, and the T/C [9] was 93 % of control, the T/C [10] was 93 % of control and the T/C [1] was 88 % of control and 93 % of control.
With `Cc1c2ccncc2c(C)c2c1[nH]c1ccc(OCCN(C)C)cc12` the T/C (dose: 6.25 mg/kg/injection, schedule: Q04DX002 (ip), vehicle: water) was 108 % of control, the T/C (dose: 12.5 mg/kg/injection, schedule: Q04DX002 (ip), vehicle: water) was 114 % of control and the T/C (dose: 25.0 mg/kg/injection, schedule: Q04DX002 (ip), vehicle: water) was 119 % of control. The T/C (dose: 50.0 mg/kg/injection, schedule: Q04DX002 (ip), vehicle: water) was 87 % of control.
